The values that follow come from patent publication US20060084704A1, “Methods and compositions for enhancing degradation of nuclear receptor transcription factors and uses thereof” (priority 2004, published 2006).

“And” between values parts separate entries of the source, which are not always exact repeats. Identical values can stand only once. “Also recorded” adds a separate entry of the source.

One assay deals with acne vulgaris. In words: Topical treatment of acne in human volunteers. The class given is in vivo. Particulars: for Recovery Time: topical cream, per subject. How it is done:
In this example, human subjects were successfully treated for acne by topical administration of a cream containing the compound JC15 or JC9, which were shown in the previous examples to ameliorate the effects of the androgen receptor-activated pathway, specifically by inducing degradation of the androgen receptor. A basic carrier formulation was prepared by mixing two solutions: (1) a water-based solution containing aristoflex avc, Osmocide, Tween 20, and water; and (2) an oil-based solution containing isopropyl myristate, coconut dienthanolamine, ethylparaben, isobutylparaben, methylparaben, and propylparaben. The test compounds (JC15 or JC9) were added to the cream to a final concentration of 1 to 2.5 micromolar, as needed.
Male and female human volunteers ranging in age from 15 years to 52 years were treated by topical application of the test compounds to the acne-affected skin. […] The results are given in Table 1, and a representative result (photo pictures) from one volunteer is depicted in FIG. 7.

For a further assay, the system named is sebaceous glands. In words: Reduction of sebaceous glands in Fuzzy rats by topical cream. Particulars: once daily; for size of the sebaceous glandular lobe and duct: male Fuzzy rats, 8 weeks. The class given is in vivo. The source says:
In this example, the test compounds JC15 and JC9, which were shown in the previous examples to ameliorate the effects of the androgen receptor-activated pathway, specifically by inducing degradation of the androgen receptor, and to be effective in treating acne in human subjects, were used to reduce sebaceous glandular lobe size in an animal model. Effective reduction of sebaceous glands by topical treatment may be useful in treating skin conditions such as acne. Fuzzy rats were used in this animal model as described in Ye et al. (1997) Skin Pharmacol., 10:10288-10297, which is incorporated by reference in its entirety herein.
Topical creams were prepared as described in EXAMPLE 6. The test creams contained JC9 ([…]) or JC15 (1 micromolar); a control cream with only vehicle added was also prepared. The test or control creams were applied using a cotton swab to the dorsal skin of the animal, once daily, over a period of 8 weeks. Animals were then sacrificed and skin samples collected for microscopic examination. Commercial hair remover was applied to the dorsal surface of the euthanized animals. After 5 minutes, the hair remover and hairs were removed with a tissue. The area was thoroughly cleaned with 75% isopropyl alcohol. A 4-millimeter skin punch was used to remove skin tissue samples, which were incubated for 2 to 3 hours in a ethylenediaminetetraacetate (EDTA, 17 millimolar), sodium phosphate (0.1 molar, pH 7.4) solution at 37 degrees Celsius. The epidermis was carefully separated from the dermis and stored in 10% phosphate-buffered formalin. Prior to microscopic examination, the samples were mounted on glass slides. Areas of well-preserved glandular lobules were selected for microscopic imaging. Edges of the glandular lobes were traced and the areas of the traced lobes obtained with Image J software (National Institutes of Health).

Another assay deals with retinoid X receptor. The experiment in a line: Western blot of LNCaP cell lysates, RXR. Format: cell-based, human. Particulars: 1 or 2 micromolar, 24 hours, presence or absence of DHT. How it is done: Human prostate cancer LNCaP cells and T47D cells were plated at a density of 7×10^5 cells per 60 millimeter tissue culture dish in […] (RPMI) medium containing 10% FBS. The medium was changed to RPMI or DME medium containing 10% charcoal-stripped serum 24 hours later to deplete cellular androgens or estrogens. After another 24 hours, treatment with the test compounds began. The test dose of JC15 was 1 or 2 micromolar and the test does of JC9 was 1, 5 and 10 micromolar. LNCap cells also received dihydrotestosterone (DHT) (3 nanomolar). Control cells received a corresponding amount of the vehicle, dimethylsulfoxide (DMSO) (<0.04%) for an equivalent exposure time. Cells were incubated with JC15 for 24 or 48 hours, and were lysed in 250 microliters of 1×SDS/PAGE loading buffer. Approximately 40 micrograms of total cellular protein was loaded in each lane of a pre-cast gel (NuPAGE, Invitrogen). Protein separation and transfer were performed following the manufacturer's instructions.
For the prostate cell lysates, androgen receptor (AR) protein was visualized by incubating the resultant membranes with an anti-AR antibody (BD-PharMingen), followed by chemiluminescence detection (ECL Plus, Amersham). […] The resultant protein signals were quantified using densitometry and NIH ImageJ software.

With `COc1ccc(C=CC(=O)C=C(O)C=Cc2ccc(OC)c(OC)c2)cc1OC` [JC9, 5-hydroxy-1,7-bis(3,4-dimethoxyphenyl)-1,4,6-heptatrien-3-one], the “Recovery Time” value in the assay with acne vulgaris (1 micromolar, four times a day) was 1 week; with acne vulgaris (1 micromolar, twice a day), 2 weeks; in the assay with acne vulgaris (2.5 micromolar, twice a day), 1 week. Further, the “time within which bands of sebaceous glands were reduced” value in the assay with sebaceous glands (JC9 25 micromolar cream, topical) is recorded as 4-5 weeks. The “size of the sebaceous glandular lobe and duct” value in the assay on sebaceous glands (JC9 25 micromolar cream) is “reduction in the size of the sebaceous glandular lobe and duct; also recorded: significantly reduced the size of lobe and ducts of sebaceous glands”.
Consider `CCOC(=O)CCC(C(=O)C=Cc1ccc(O)c(OC)c1)C(=O)C=Cc1ccc(O)c(OC)c1` (stereo not shown) [JC15, 7-(4-hydroxy-3-methoxyphenyl)-4-[3-(4-hydroxy-3-methoxyphenyl)acryloyl]-5-oxo-hept-6-enoic acid ethyl ester], for which, in the assay with retinoid X receptor, the “cellular concentration of retinoid X receptor” value is on record as “did not substantially affect”. For the same compound, in the assay on acne vulgaris (JC15 1 micromolar in carrier base, acne-affected volunteer, one month topical treatment), the “skin condition of forehead (photographs)” value was “visible improvement to skin condition”. For the same compound, the “Recovery Time” value with acne vulgaris (1 micromolar, as often as needed, listed as ASCJ15) is 1 week weeks (2×) and 2 weeks; in the assay with acne vulgaris (1 micromolar, twice a day, listed as ASCJ15), 2 weeks (2×) and 1 week weeks. The “size of the sebaceous glandular lobe and duct” value with sebaceous glands (JC15 1 micromolar cream) was “reduction in the size of the sebaceous glandular lobe and duct; also recorded: approximately equivalent to the decrease caused by castration”.
